The conditions of data set [1]: in vivo; with temozolomide, doxorubicin, docetaxel; cited from earlier work.
Data set [2] in a line: Solubility in water (water/2-propanol recrystallization). In kind it is physicochemical. The following applies: crude solids, ambient temperature. On the procedure: The crude solids (0.5 g) were dissolved in water (1 mL) and 2-propanol (5 mL) was charged. The resulting slurry was stirred at room temperature for 1 hour, and then isolated by filtration. The solids were washed with 2-propanol (to cover the solids) and air dried to afford 0.1 g (20% recovery yield).

The next data set relates to PP2A. The note with it: used alone (Lu et al. 2009a); cited from earlier work.
Data set [3] can be described thus: Solubility in toluene (hot toluene trituration). In kind it is physicochemical. The following applies: crude solids digested in hot toluene for 1 hour. On the procedure: The crude solids (1 g) were digested in hot toluene (15 mL) for 1 hour. The slurry was cooled to room temperature and the solids were isolated by filtration. The solids were dried at 80° C., under vacuum, to afford 0.86 g (86%). […] Based on this observation, in the following experiment toluene was further tried as an anti-solvent.

As to `CN1CCN(C(=O)C2C(C(=O)O)[C@H]3CC[C@@H]2O3)CC1` (stereo in doubt) [LB100, 3-(4-methylpiperazine-1-carbonyl)-7-oxabicyclo[2.2.1] heptane-2-carboxylic acid], in data set [1], the “potentiation of anti-tumor activity of standard cytotoxic anti-cancer drugs” value is “significantly potentiates in vivo” and the “toxicity in combination with cytotoxic anti-cancer drugs” value is reported as “without observable increase in toxicity”. In data set [2], the solubility in water entry is listed as “high solubility in water”. Moreover, the anti-cancer activity entry with PP2A is “has anti-cancer activity when used alone”. Further, in data set [3], the solubility in toluene result was “low solubility of the material in toluene”.
